Here are results for 6 compounds from patent US8097422B2, “Kir channel modulators” (Salk Institute for Biological Studies, priority 2007, dated 2012).

The target of one assay is T1, Kir3 channels (Mus musculus, UniProt P48542).
T1 construct: other: patch-clamp; other: 100 mM
T1 sequence (P48542 1-425): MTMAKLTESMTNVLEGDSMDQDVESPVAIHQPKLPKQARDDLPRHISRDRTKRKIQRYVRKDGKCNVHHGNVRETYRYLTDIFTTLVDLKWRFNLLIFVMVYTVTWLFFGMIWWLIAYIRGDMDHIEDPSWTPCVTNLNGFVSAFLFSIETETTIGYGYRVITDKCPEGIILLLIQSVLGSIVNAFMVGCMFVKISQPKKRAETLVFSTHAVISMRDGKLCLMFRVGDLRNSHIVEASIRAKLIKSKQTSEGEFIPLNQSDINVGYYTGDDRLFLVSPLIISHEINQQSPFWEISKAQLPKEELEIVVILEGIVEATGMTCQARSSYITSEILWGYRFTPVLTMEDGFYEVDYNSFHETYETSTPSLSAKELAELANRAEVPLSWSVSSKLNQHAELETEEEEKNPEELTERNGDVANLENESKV
Description: patch-clamp determination of ion transport activity: activation of Kir3 channels. It counts as cell-based. The note with it: for Emax at 100000 µM: read-out: Maximal activation of Kir3 channels relative to that of 100 mM (±)MPD. An excerpt: It has been determined that inwardly rectifying potassium (Kir) channels are regulated directly by small molecule alcohol compounds. Three-dimensional crystallographic analysis of Kir channels has elucidated atomic details of binding pocket interactions with 2-methyl-2,4-pentanediol (MPD). MPD inhibits Kir2 channel activity and activates Kir3 channel activity. Amino acid substitutions in this hydrophobic pocket of the channel protein may alter the response to MPD. As determined by patch-clamp determinations of ion transport activity, a racemic mixture of 2-methyl-2,4-pentanediol, (±)MPD, activates Kir3 channels with an EC50 of >200 mM and inhibits Kir2 homotetramer channels with an IC50 of ˜200 mM. […] Bupivacaine inhibits Kir3.1/3.4 and Kir3.1/3.2 channels with an IC50 of ˜20-40 micromolar.
The following also were observed. Maximal activation of Kir3 channels by 100 mM (±)MPD is 280% that of 100 mM EtOH. Maximal activation of Kir3 channels by 100 mM R(−)2 methyl-2,4-pentanediol is 60% that of 100 mM (±)MPD. Maximal activation of Kir3 channels by 100 mM 3-methyl-1,3,5-pentanetriol is 70% that of 100 mM (±)MPD. Maximal activation of Kir3 channels by 100 mM 2,5-dimethyl-1,2,6-hexanetriol is 70% that of 100 mM (±)MPD. Maximal activation of Kir3 channels by 100 mM (±) 2,4-pentanediol is 50% that of 100 mM (±)MPD.
On the technique in general: Patch clamp records ionic current or voltage across a cell membrane.

The target in the next assay is T2, IRK1 channel (Mus musculus, UniProt P35561).
T2 construct: expressed in transfected cells; host or cells: HEK293T
T2 sequence (P35561 1-428): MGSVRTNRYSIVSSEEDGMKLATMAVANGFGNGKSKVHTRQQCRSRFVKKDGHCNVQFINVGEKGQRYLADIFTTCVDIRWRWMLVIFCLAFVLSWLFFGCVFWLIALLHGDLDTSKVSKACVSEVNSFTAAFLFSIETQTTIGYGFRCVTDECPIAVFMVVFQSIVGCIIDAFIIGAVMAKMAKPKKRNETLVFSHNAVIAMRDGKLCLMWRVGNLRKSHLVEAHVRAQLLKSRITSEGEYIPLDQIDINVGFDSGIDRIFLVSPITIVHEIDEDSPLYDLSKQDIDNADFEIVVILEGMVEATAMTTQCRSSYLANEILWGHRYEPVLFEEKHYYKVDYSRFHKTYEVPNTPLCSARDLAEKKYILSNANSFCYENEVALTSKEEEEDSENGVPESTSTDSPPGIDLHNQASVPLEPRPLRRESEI
The assay can be described thus: whole-cell patch clamp, HEK293T cells transfected with IRK1. It counts as cell-based. The note with it: 1 mM Ba++. As to the method: Using whole-cell patch clamp, technique in HEK293T cells transfected with IRK1 or GIRK2 channels, it was determined that MPD does in fact modulate these channels. Addition of 100 mM MPD inhibits the inward currents of the IRK1 channel, without changing the reversal potential or altering inward rectification (FIG. 1e).
(§1) GIRK2c, GIRK4, IRK1, M2R and m-Phosducin were subcloned into PCDNA3.1 vector (Invitrogen). Point mutations were introduced by Quickchange site directed mutagenesis kit (Stratagene). The GIRK2 PIP mutant was generated by overlap-PCR method. Briefly, amino acid 216-NLRKSHL-222 (SEQ ID NO: 25) of IRK1 was swapped into 228-DLRNSHL-234 (SEQ ID NO: 26) of GIRK2, in the region designated βC-βD loop in the crystal structure. Mutations were confirmed by automated DNA sequencing methods.
(§2) HEK 293T cells were cultured in DMEM supplemented with 10% FBS, and 1× Glutamax (Invitrogen) in a humidified 37° incubator with 5% CO2. Cells were plated in a 12 well dish, and were transiently transfected using Lipofectamine 2000 (Invitrogen). After 12-24 hrs, cells were re-plated to 12-mm glass coverslips coated with poly-D-Lysine (20 microgram/ml).
(§3) HEK293 cells were transfected with 0.2 micrograms of channel cDNA. The cells were co-transfected with 0.04 micrograms of eYFP cDNA to identify transfected cells. 0.8 micrograms of Muscarinic Receptor 2 (M2R) was also co-transfected for experiments with Carbachol. For experiments with and without m-phosducin, 0.8 ug of m-phosducin cDNA was used versus a PCDNA3.1 vector control.
(§4) Whole-cell patch clamp recordings were performed 24-72 hrs after transfection. Borosilicate glass electrodes (Warner Instruments) of […] filled with intracellular solution (130 mM KCl, 20 mM NaCl, 5 mM EGTA, 2.56 mM K2ATP, 5.46 mM MgCl2, 0.30 mM Li2GTP, and 10 mM HEPES (pH 7.4)) was used. Membrane currents were recorded using Axopatch 200B (Axon Instruments) amplifier, adjusted electronically for cell capacitance and series resistance (80-100%), filtered at 1 kHz with an 8-pole Bessel filter and digitized at 5 kHz with a Digidata 1200 interface (Axon Instruments). The cells rapidly perfused with a 20 mM K^+ (20K) solution (20 mM KCl, 140 mM NaCl, 0.5 mM CaCl2, 2 mM MgCl2 and 10 mM HEPES (pH7.4)). Alcohols, 5 μM Carbachol, and 1 mM BaCl2 (diluted in 20K solution) were applied from outside the cell with the rapid perfusion system (Warner Instruments). Whole-cell currents were measured using a ramp protocol that holds at −40 mV, steps to −100 mV then ramps to +50 mV and repeats every 2 seconds. Current-voltage relationships also were obtained from the ramp protocol. This protocol was used to measure the inwardly rectifying currents at −100 mV and to ensure stability of recording by monitoring a reversal potential and inward rectification. Current density was measured by dividing inward current at −100 mV by membrane capacitance that was compensated during the recording. Basal currents were measured as the Ba^++ blocked inward currents at −100 mV. Alcohol and Carbachol modulated currents were measured by averaging two consecutive current readings upon reaching steady state, and subtracting the averaged basal current before and after the application of modulator. Pooled data are presented as Mean±SEM and evaluated for statistical significance by a 1-way ANOVA, followed by Bonferroni's multiple comparison post-hoc test.

Assay [1] has as its target T3, GIRK2 channel (wild type) (Mus musculus, UniProt P48542).
T3 construct: expressed in transfected cells; host or cells: HEK293T
T3 sequence (P48542 1-425): T1 sequence (P48542 1-425)
The assay can be described thus: whole-cell patch clamp, HEK293T cells transfected with GIRK2. It counts as cell-based. The note with it: 1 mM Ba++, MPD doses up to 300 mM.
Text: as §1, §2, §3, §4

Assay [2] relates to Kir3.1/3.4 and Kir3.1/3.2 channels. The note with it: cited from earlier work.
The next assay concerns Kir1 and Kir2 channels. The settings on record: cited from earlier work.

Each structure is given as a SMILES string. Read-outs that look alike come from different tables or passages of the source.

As for `CC(O)CC(C)O` (racemic) [(±) 2,4-pentanediol, 2,4-pentanediol], on Kir3 channels, the Emax at 100000 µM came to 50%. As for `CC(CO)CCC(C)(O)CO` (stereo not drawn) [2,5-dimethyl-1,2,6-hexanetriol], the Emax at 100000 µM on Kir3 channels is 70%.

With `CC(O)(CCO)CCO` [3-methyl-1,3,5-pentanetriol], the Emax at 100000 µM at Kir3 channels stood at 70%. As to `[Ba+2].[Cl-].[Cl-]` [Ba^++, BaCl2], the “block of IRK1 inwardly rectifying current” value on IRK1 channel was “blocked completely”. The “block of MPD-induced GIRK2 currents” value in assay [1] is listed as “completely blocked”. With `CCCCN1CCCCC1C(=O)Nc1c(C)cccc1C` (stereo not drawn) [Bupivacaine], the IC50 was roughly 20 µM in assay [2] (certain Kir3 channels, read-out: IC50 for inhibition of certain Kir3 channels); 20 to 40 µM in assay [2] (reference [31], read-out: IC50 for inhibition of Kir3.1/3.4 and Kir3.1/3.2 channels). For the same compound, the “sensitivity of Kir1 and Kir2 channels to bupivacaine” value in the assay with Kir1 and Kir2 channels is listed as “insensitive”. Take `C[C@@H](O)CC(C)(C)O` [R(−)2 methyl-2,4-pentanediol]: the “Maximal activation of Kir3 channels relative to that of 100 mM (±)MPD” value at Kir3 channels (100 mM) amounted to 60%.
